Experiments:
[1] = molecular target: Ephrin type-A receptor 5 (Homo sapiens) (UniProt P54756); conditions: at 10 µM
[2] = molecular target: AP2-associated protein kinase 1 (Homo sapiens, UniProt Q2M2I8); assay: Selectivity interaction (KinomeScan (DiscoverX)) EUB0000092b AAK1; conditions: at 10 µM
[3] = molecular target: Cyclin-dependent kinase 1/cyclin B (Homo sapiens, UniProt P06493); assay: Selectivity interaction (Kinase panel (Enzyme activity assay)) EUB0000612a CDK1; assay type: protein-complex assay
[4] = molecular target: T1, PAN2-PAN3 deadenylation complex subunit PAN3 (Homo sapiens) (UniProt Q58A45); assay: Selectivity interaction (ActivX KiNativ screen (ex vivo kinase selectivity in human PBMCs)) EUB0001619a PAN3; assay type: cell-based; conditions: PBMC, at 1 µM
T1 sequence (whole entry): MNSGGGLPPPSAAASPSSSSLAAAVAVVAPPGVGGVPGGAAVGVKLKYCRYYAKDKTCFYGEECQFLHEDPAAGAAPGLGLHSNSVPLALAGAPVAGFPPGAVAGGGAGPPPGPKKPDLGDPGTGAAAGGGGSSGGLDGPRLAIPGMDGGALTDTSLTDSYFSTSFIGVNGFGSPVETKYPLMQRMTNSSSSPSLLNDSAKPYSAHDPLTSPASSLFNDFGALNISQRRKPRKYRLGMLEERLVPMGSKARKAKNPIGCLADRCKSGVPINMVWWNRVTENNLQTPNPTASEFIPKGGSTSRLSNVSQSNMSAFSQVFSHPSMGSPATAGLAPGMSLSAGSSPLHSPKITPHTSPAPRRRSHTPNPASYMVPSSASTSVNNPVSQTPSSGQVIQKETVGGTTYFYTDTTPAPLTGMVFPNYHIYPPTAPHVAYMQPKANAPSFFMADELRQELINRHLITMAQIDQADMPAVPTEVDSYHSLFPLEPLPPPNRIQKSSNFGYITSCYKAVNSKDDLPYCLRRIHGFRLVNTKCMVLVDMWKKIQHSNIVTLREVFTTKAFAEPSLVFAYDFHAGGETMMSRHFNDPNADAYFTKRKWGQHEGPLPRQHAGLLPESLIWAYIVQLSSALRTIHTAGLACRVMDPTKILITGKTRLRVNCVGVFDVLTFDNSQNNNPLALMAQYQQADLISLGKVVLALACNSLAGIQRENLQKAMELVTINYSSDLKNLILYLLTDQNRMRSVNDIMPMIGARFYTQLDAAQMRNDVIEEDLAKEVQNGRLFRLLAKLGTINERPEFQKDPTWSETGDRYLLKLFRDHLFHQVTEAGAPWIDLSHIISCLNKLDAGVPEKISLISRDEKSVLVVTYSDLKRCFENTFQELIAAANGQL

[5] = molecular target: Transient receptor potential cation channel subfamily M member 6 (Homo sapiens) (UniProt Q9BX84); assay: Selectivity interaction (KinomeScan (DiscoverX)) EUB0001619a TRPM6; conditions: at 1 µM
[6] = molecular target: T2, cGMP-dependent protein kinase 1 (Homo sapiens) (UniProt Q13976); assay: Selectivity interaction (Upstate Kinase Profiler service (Millipore)) EUB0000056c PRKG1; conditions: at 1 µM
T2 sequence (whole entry): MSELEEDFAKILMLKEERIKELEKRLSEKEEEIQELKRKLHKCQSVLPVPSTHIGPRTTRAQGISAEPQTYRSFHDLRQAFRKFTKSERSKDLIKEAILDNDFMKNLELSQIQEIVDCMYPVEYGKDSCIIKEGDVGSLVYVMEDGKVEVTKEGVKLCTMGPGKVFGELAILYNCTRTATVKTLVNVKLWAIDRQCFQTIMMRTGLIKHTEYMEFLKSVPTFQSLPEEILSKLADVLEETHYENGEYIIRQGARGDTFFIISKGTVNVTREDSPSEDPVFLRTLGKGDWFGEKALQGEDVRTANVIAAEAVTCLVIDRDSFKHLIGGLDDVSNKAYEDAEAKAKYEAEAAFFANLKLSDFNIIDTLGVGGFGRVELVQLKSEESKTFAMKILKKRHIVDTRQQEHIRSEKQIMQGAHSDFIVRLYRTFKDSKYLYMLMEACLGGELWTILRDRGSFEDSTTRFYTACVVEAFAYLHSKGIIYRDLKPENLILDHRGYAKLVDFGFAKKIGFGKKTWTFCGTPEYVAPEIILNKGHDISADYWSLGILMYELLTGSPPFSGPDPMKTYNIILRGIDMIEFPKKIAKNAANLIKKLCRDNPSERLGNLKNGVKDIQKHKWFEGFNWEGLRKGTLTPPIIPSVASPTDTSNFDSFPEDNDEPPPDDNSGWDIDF

[7] = molecular target: Serine/threonine-protein kinase SIK2 (Homo sapiens) (UniProt Q9H0K1); assay: Selectivity interaction (KinomeScan (DiscoverX)) EUB0000695a SIK2; conditions: at 100 nM
[8] = molecular target: T3, Serine/threonine-protein kinase Sgk3 (Homo sapiens) (UniProt Q96BR1); assay: Selectivity interaction (ProQinase) EUB0000171b SGK3
T3 sequence (whole entry): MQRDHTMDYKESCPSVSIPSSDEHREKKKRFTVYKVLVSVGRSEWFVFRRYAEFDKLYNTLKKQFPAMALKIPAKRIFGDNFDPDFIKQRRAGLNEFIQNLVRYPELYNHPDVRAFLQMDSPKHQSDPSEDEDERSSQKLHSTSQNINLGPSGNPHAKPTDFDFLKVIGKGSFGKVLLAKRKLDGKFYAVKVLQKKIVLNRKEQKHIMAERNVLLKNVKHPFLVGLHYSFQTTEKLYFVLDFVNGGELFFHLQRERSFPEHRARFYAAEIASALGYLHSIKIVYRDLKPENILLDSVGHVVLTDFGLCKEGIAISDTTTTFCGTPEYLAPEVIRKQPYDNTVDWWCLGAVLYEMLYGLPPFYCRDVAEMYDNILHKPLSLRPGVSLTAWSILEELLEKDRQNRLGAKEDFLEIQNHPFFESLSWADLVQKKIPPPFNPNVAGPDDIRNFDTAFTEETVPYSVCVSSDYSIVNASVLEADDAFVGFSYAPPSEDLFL

Sequence of Serine/threonine-protein kinase SIK2 (Homo sapiens) (Q9H0K1 whole entry, looked up): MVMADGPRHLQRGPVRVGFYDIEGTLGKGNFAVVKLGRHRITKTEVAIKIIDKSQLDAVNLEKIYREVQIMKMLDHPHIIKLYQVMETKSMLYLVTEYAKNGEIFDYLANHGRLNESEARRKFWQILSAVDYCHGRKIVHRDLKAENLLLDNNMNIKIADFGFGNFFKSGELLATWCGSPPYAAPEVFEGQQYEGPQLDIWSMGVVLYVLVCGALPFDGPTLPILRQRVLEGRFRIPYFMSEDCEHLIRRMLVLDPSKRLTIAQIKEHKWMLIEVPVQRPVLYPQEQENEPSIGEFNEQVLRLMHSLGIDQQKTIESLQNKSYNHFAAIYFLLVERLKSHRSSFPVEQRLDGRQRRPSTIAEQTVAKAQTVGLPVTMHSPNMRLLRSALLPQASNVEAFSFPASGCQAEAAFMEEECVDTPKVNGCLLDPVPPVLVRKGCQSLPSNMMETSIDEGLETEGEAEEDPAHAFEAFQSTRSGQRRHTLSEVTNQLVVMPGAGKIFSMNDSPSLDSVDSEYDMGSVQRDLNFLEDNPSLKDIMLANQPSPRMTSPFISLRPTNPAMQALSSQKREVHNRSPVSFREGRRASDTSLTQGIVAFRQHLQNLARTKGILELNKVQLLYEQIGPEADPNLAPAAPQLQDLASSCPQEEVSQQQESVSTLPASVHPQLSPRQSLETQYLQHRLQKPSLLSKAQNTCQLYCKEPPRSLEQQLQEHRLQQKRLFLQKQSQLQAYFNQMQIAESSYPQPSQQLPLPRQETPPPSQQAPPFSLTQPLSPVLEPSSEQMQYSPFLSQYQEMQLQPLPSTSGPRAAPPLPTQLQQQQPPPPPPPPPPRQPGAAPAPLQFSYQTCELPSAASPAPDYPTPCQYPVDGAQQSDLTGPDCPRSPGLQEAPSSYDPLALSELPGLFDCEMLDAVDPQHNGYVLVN
Sequence of AP2-associated protein kinase 1 (Q2M2I8 whole entry, looked up): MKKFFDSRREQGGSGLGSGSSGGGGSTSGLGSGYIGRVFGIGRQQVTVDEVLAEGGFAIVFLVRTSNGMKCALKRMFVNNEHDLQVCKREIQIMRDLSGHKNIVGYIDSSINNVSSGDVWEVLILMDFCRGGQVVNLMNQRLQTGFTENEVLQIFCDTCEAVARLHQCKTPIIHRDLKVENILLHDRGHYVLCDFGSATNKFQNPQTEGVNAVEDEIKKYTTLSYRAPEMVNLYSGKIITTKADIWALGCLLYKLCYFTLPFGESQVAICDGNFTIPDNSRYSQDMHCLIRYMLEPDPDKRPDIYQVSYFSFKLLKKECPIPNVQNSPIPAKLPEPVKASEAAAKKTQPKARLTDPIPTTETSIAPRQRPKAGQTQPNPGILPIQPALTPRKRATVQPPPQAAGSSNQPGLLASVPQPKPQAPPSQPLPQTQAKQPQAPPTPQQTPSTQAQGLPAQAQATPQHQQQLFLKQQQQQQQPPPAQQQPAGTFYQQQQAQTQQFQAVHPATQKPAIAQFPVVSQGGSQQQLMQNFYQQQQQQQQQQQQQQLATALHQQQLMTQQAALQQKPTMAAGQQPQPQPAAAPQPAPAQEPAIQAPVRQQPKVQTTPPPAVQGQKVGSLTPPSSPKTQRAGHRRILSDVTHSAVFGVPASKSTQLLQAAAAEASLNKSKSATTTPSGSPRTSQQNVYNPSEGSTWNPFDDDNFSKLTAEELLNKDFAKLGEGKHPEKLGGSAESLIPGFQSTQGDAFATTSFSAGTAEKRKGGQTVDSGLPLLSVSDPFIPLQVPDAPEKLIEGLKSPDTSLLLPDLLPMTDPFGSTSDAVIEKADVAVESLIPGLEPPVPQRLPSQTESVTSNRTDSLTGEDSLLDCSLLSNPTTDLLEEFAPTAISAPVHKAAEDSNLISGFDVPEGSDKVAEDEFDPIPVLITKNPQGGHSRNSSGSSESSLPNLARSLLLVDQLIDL
Sequence of Transient receptor potential cation channel subfamily M member 6 (Homo sapiens) (Q9BX84 whole entry): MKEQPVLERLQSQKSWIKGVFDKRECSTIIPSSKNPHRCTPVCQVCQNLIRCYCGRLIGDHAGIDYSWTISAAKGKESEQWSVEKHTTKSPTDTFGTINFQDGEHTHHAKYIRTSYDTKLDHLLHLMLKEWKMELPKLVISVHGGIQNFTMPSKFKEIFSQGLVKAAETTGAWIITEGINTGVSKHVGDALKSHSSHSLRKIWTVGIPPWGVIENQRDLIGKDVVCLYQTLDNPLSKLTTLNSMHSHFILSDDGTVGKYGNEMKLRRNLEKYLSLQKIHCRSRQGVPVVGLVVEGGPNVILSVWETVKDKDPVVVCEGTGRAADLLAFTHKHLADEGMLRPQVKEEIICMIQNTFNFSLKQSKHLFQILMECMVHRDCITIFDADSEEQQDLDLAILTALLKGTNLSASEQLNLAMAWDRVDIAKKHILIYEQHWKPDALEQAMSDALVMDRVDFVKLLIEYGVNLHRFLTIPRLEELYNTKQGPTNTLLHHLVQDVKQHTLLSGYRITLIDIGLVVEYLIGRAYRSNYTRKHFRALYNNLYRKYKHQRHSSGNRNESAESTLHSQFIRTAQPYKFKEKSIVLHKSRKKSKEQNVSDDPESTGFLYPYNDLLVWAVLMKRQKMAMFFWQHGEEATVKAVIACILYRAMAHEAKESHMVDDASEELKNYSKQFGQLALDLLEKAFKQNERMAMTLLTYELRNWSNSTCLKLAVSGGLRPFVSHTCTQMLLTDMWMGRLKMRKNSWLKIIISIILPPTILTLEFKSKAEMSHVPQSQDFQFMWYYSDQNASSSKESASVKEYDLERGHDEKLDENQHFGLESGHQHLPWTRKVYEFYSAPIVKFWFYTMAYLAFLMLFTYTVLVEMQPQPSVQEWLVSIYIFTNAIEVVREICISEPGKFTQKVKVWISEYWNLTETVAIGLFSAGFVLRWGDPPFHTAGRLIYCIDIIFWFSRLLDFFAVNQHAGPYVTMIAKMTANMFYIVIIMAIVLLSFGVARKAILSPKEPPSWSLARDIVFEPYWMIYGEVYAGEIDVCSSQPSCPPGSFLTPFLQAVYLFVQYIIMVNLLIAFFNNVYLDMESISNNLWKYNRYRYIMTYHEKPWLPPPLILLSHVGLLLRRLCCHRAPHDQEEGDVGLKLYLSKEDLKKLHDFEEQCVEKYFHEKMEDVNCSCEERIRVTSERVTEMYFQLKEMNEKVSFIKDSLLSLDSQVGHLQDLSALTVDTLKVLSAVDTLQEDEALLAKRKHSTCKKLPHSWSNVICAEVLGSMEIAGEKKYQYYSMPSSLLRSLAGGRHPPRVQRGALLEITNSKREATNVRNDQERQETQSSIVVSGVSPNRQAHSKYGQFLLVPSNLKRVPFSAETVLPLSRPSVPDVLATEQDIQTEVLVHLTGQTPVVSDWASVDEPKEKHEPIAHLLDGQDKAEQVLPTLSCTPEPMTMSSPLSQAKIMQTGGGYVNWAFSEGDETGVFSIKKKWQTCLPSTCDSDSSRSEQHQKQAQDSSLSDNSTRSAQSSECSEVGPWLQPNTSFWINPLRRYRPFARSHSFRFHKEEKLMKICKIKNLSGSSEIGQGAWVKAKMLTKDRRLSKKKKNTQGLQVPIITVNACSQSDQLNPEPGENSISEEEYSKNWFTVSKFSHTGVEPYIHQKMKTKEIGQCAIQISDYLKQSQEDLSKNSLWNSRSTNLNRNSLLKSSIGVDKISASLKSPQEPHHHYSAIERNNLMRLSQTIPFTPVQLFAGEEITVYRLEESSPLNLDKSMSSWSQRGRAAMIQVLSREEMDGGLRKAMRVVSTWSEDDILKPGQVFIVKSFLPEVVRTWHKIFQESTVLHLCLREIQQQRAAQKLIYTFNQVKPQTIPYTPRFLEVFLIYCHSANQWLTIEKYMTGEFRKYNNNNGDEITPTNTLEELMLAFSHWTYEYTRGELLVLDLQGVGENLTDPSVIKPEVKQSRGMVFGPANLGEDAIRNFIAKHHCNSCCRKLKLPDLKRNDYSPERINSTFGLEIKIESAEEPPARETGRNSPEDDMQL
Sequence of Ephrin type-A receptor 5 (Homo sapiens) (P54756 whole entry): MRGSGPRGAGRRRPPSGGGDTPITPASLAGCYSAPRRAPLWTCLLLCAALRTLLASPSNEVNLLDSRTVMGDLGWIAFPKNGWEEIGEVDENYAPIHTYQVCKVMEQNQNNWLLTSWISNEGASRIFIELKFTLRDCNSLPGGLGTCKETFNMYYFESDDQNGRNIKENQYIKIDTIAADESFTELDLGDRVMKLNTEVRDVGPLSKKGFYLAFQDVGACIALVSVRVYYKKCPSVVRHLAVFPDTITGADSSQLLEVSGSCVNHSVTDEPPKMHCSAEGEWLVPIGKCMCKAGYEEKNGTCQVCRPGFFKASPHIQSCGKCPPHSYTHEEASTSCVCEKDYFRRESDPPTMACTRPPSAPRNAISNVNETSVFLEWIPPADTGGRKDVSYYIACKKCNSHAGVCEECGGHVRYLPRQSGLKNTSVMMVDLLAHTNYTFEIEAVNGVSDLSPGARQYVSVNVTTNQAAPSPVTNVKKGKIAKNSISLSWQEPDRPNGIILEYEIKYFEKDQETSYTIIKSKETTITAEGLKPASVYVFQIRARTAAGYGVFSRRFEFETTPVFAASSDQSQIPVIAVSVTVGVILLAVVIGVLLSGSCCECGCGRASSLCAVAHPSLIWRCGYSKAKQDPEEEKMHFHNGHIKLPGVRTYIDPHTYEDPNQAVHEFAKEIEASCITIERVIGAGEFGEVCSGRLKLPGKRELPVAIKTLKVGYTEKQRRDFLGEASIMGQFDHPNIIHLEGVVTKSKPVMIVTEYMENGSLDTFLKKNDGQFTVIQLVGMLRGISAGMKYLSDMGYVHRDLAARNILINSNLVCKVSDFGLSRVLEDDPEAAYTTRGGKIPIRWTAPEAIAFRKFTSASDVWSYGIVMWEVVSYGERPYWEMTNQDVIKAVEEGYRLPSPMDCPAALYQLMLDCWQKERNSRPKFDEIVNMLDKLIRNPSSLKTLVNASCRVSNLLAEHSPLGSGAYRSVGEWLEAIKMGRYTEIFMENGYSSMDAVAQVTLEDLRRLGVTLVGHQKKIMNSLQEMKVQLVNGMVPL

SMILES: CCN(CC)CCCCNc1ncc2cc(-c3cc(OC)cc(OC)c3)c(NC(=O)NC(C)(C)C)nc2n1
- % of control [1]: 100%

SMILES: CCC(=O)N1CCN(c2ccc(-n3c(=O)ccc4cnc5ccc(-c6cnc7ccccc7c6)cc5c43)cc2C(F)(F)F)CC1
- % of control [2]: 75%

SMILES: CCc1cccc(CC)c1NC(=O)c1nn(C)c2c1CCc1cnc(Nc3ccc(C(=O)NC4CCN(C)CC4)cc3OC(F)(F)F)nc1-2
- IC50 [3]: > 10 µM

SMILES: N#Cc1cccc(-c2c[nH]c3ncnc(N4CCOCC4)c23)c1
- % of inhibition [4]: 15%
- % of control [5]: 100%

SMILES: Cc1ccc(-c2ccc3c(ccc4sc5c(c43)NC[C@@H](C)NC5=O)n2)cn1
- % of inhibition [6]: 3%

SMILES: Cc1cc(F)c(C(=O)Nc2cccc(-c3nncn3C(C)C)n2)cc1-n1cnc(C2CC2)c1
- % of control [7]: 100%

SMILES: C=CC(=O)Nc1cccc(C(=O)Nc2ccc(Nc3cc(-c4[nH]c(SC)nc4C)ccn3)cc2)c1
- % of control ([8]; at 1 µM): 82%
- % of control ([8]; at 5 µM): 76%

— ChEMBL document CHEMBL5465560, “Selectivity Literature for EUbOPEN Chemogenomic Library” (2024)
